The source of these data is US9763992B2, “Treatment of noise induced hearing loss” (Father Flanagan's Boys' Home, priority 2014, dated 2017).

One assay has as its system IL-2. Put plainly: qRT-PCR cytokine expression after noise exposure: IL-2. Type of assay: in vivo, mouse. As to conditions: GA-treated mice, 10 days following noise exposure (Group 1), FIG. 7. How it is done: (§1) To determine if GA affects cytokine expression, groups of mice received GA as described above, and cytokine expression was evaluated via RT-PCR.
(§2) Using RT-PCR, the effects of GA on cytokine expression in the cochlea, specifically those mediators associated with pro- or anti-inflammatory activity, was established.
A general note: Real-time PCR tracks product formation cycle by cycle.

The subject of a further assay is TGF-β. Put plainly: qRT-PCR cytokine expression after noise exposure: TGF-β. Type of assay: in vivo, mouse. Conditions: GA-treated mice, spleen tissues. How it is done:
as §1, §2

The subject of another assay is IL-4. Put plainly: qRT-PCR cytokine expression after noise exposure: IL-4. Type of assay: in vivo, mouse. As to conditions: GA-treated mice, 10 days following noise exposure (Group 1), spleen tissues, FIG. 6. The procedure: (§3) To determine if GA affects cytokine expression, groups of mice received GA as described above, and cytokine expression was evaluated via RT-PCR. […]

A further assay concerns IL-17. Put plainly: qRT-PCR cytokine expression after noise exposure: IL-17. Type of assay: in vivo, mouse. As to conditions: GA-treated mice, 10 days following noise exposure (Group 1), FIG. 7. The procedure: as §1, §2
For a further assay, the system named is interferon-gamma. Put plainly: qRT-PCR cytokine expression after noise exposure: interferon-gamma. The class given is in vivo, mouse. Conditions: GA-treated mice, 10 days following noise exposure (Group 1), spleen tissues, FIG. 6. How it is done:
as §3

The test system of the next assay is TNF-alpha. Put plainly: qRT-PCR cytokine expression after noise exposure: TNF-alpha. The class given is in vivo, mouse. As to conditions: GA-treated mice, 10 days following noise exposure (Group 1), FIG. 7. The procedure: as §1, §2
Assay [1] has as its system noise-induced hearing loss (NIHL) in CBA mice. Put plainly: ABR threshold recovery after traumatizing noise exposure in mice. Type of assay: in vivo, mouse. The procedure: (§4) To determine if the glatiramer acetate (GA) prevents or reduces hearing loss in mice following exposure to traumatizing noise, following determination of baseline acoustic thresholds (i.e., pre-noise exposure thresholds), hearing sensitivity and input-output relationships was assessed during the post-noise exposure period using auditory evoked brainstem responses (ABRs) and distortion product otoacoustic emissions (DPOAEs); DPOAEs were studied using the same protocol as in ABR-based studies to separate findings associated with neural and sensory outcomes. Responses to tone burst stimuli was acquired immediately following noise exposure, daily during the early post-exposure period, and intermittently thereafter for six (6) months to generally assess the long-term outcome of exposure to traumatizing noise in CBA mice. Morphological correlates of final treatment outcomes, including sensory and support cell (cytocochleograms), synapses between hair cells and spiral ganglion dendrites, and SGN survival estimates, was made at the end of the acute phase (2 months following noise exposure) or at 6 months to assess long-term outcomes.
The traumatizing noise used in CBA mouse studies was an octave band of white noise centered on 11.3 kHz and was presented at 109 dB SPL for 30 min. Because of well-documented differences in the abilities of males and females to mount inflammatory responses, both males and females were included in this investigation.
In mice, GA (100 mg/kg) was administered following two treatment strategies. In Group 1, GA was administered in sequential doses one month and one week prior to noise exposure (the “protection” approach), with supplementary doses on a daily basis for the first 4 days following noise exposure and again on the 7th and 14th post-exposure days in mice, to determine if GA can prevent permanent hearing loss associated with traumatizing noise. In Group 2, GA was administered only during the post-noise exposure period in an effort to determine if GA can rescue hearing following acute trauma. In a subset of animals, GA was administered prior to noise exposure and then daily for the first ten post-exposure days. Complete Freund's adjuvant will be used to deliver the first dose of the agent to determine if GA actions might be potentiated (boosted) when delivered in an emulsified form in a separate group of mice.
An example of findings associated with this experimental design is shown in FIG. 2, in which families of ABR threshold-frequency curves (audiograms) generated by tracking sensitivity according to the “protection” protocol reviewed above in a GA-treated animal (right panel) and a saline-treated control (left panel) that were exposed to noise simultaneously are shown.
With this example, to determine if treatment with GA alone reduces the amount of temporary and permanent hearing loss and/or accelerates the rate of recovery from temporary threshold shift (TTS), groups of mice received GA or saline and were evaluated as described above.

For assay [2] the test system is unchanged. Put plainly: DPOAE input-output curves (outer hair cell function) after noise exposure in mice. As to conditions: one GA-treated mouse relative to saline-treated; 14 days following noise exposure; f2=11.3 kHz; FIG. 4. Type of assay: in vivo. The procedure:
as §4
The traumatizing noise used in CBA mouse studies was an octave band of white noise centered on 11.3 kHz and was presented at 109 dB SPL for 30 min. […]

Glatiramer acetate [GA]: in the assay on IL-2, the IL-2 expression result is reported as “down-regulated”. Besides, in the assay with TGF-β, the TGF-β expression result is reported as “up-regulation”. The “Expression of anti-inflammatory cytokine IL-4, fold greater than controls” value in the assay with IL-4 amounted to 2.6 fold. The IL-17 expression entry in the assay on IL-17 is recorded as “down-regulated”. In addition, in the assay with interferon-gamma, the “Interferon-gamma expression, reduction re controls” value came out at 66%. Also, the TNF-α expression entry in the assay with TNF-alpha is reported as “down-regulated”. Besides, the “Total extent of recovery following exposure (cohort)” value in assay [1] (GA cohort, control animals approximately 17 dB, FIG. 5) was approximately 25 dB. Moreover, the “Threshold recovery during the first 10 days following exposure relative to saline-treated controls and GA-treated mice below criterion” value in assay [1] (GA-treated mice with at least 3.4-fold IL-4 increase, stimulus frequencies within the noise band (8.0, 11.3 and 16.0 kHz), FIG. 9) is “greater”. The “Overall threshold recovery from NIHL relative to saline-treated controls and GA-treated mice below criterion” value in assay [1] (GA-treated mice with at least 3.4-fold increase in IL-4 expression (criterion), FIG. 8) was “significantly greater”. In assay [1] (P<0.05), the “Recovery with GA treatment alone compared with saline controls” value is recorded as “significantly enhanced”. For the same substance, the “Recovery from NIHL (ABR threshold-frequency curves)” value in assay [1] (one GA-treated mouse, protection protocol, GA 100 mg/kg, frequencies at and immediately above noise centre frequency 11.3 kHz, first 14 days after exposure, FIG. 2, 3) is reported as “nearly complete”. Also, in assay [2], the “Recovery of outer hair cell (OHC) function, DPOAE input-output curves” value is “nearly complete recovery”.
